We go through 1 compound from ChEMBL document CHEMBL1687779, “Sodium nitrite-mediated killing of the major cystic fibrosis pathogens Pseudomonas aeruginosa, Staphylococcus aureus, and Burkholderia cepacia under anaerobic planktonic and biofilm conditions” (2010).

Activity calls are given as the source filed them. No cut-off for these calls is given here.

In assay [1] the test system is Staphylococcus aureus. The experiment in a line: Antimicrobial activity against Staphylococcus aureus USA300 after 24 hrs anaerobic condition. Particulars: USA300, 24 h.
Assay [2] concerns Staphylococcus aureus. Particulars: USA300, 2048 ug/ml.
Description: Antimicrobial activity against Staphylococcus aureus USA300 assessed as 4 log inhibition of bacterial cell growth at 2048 ug/ml after 4 days under anaerobic condition
Assay [3] concerns Burkholderia cepacia. Particulars: 128 ug/ml.
Description: Antimicrobial activity against Burkholderia cepacia isolated from cystic fibrosis patient assessed as inhibition of bacterial cell growth at 128 ug/ml after 48 hrs under anaerobic condition
Assay [4] deals with Pseudomonas aeruginosa. As to conditions: PAO1, 64 to 256 ug/ml.
Description: Antimicrobial activity against non-mucoid Pseudomonas aeruginosa PAO1 assessed as inhibition of bacterial cell growth at 64 to 256 ug/ml after 24 hrs under anaerobic condition
Assay [5] relates to Staphylococcus aureus. Briefly: Antimicrobial activity against Staphylococcus aureus USA300 after 24 hrs aerobic condition. As to conditions: USA300, 24 h.
For assay [6], the system named is Pseudomonas aeruginosa. Briefly: Antimicrobial activity against non-mucoid Pseudomonas aeruginosa PAO1 after 24 hrs anaerobic condition. Particulars: PAO1, 24 h.
The test system of assay [7] is Pseudomonas aeruginosa. The experiment in a line: Antimicrobial activity against non-mucoid Pseudomonas aeruginosa PAO1 after 24 hrs aerobic condition. Particulars: PAO1, 24 h.
In assay [8] the test system is Pseudomonas aeruginosa. Particulars: FRD1, 128 ug/ml.
Description: Antimicrobial activity against mucoid Pseudomonas aeruginosa FRD1 harboring mucA22 mutant assessed as inhibition of bacterial cell growth at 128 ug/ml after 24 hrs under anaerobic condition
Assay [9] relates to Staphylococcus aureus. Particulars: USA300, 1024 ug/ml.
Description: Antimicrobial activity against Staphylococcus aureus USA300 assessed as 2 log inhibition of bacterial cell growth at 1024 ug/ml after 2 days under anaerobic condition
For assay [10], the system named is Pseudomonas aeruginosa. Briefly: Antimicrobial activity against mucoid Pseudomonas aeruginosa FRD1 harboring mucA22 mutant after 24 hrs under anaerobic condition. As to conditions: FRD1, 24 h.
The test system of assay [11] is Pseudomonas aeruginosa. Particulars: FRD1, 256 ug/ml.
Description: Antimicrobial activity against mucoid Pseudomonas aeruginosa FRD1 harboring mucA22 mutant assessed as 2 log inhibition of bacterial cell growth at 256 ug/ml after 2 days under anaerobic condition
In assay [12] the test system is Burkholderia cepacia. The experiment in a line: microbe, parasite or virus in culture. As to conditions: 24 h.
Description: Antimicrobial activity against Burkholderia cepacia isolated from cystic fibrosis patient after 24 hrs aerobic condition
The subject of assay [13] is Staphylococcus aureus. As to conditions: USA300, 512 ug/ml.
Description: Antimicrobial activity against Staphylococcus aureus USA300 assessed as inhibition of bacterial cell growth at 512 ug/ml after 24 hrs under anaerobic condition
For assay [14], the system named is Pseudomonas aeruginosa. As to conditions: FRD1, 64 ug/ml.
Description: Antimicrobial activity against mucoid Pseudomonas aeruginosa FRD1 harboring mucA22 mutant assessed as inhibition of bacterial cell growth at 64 ug/ml after 24 hrs under anaerobic condition
Assay [15] has as its system Pseudomonas aeruginosa. Briefly: Antimicrobial activity against mucoid Pseudomonas aeruginosa FRD1 harboring mucA22 mutant after 24 hrs under aerobic condition. Particulars: FRD1, 24 h.

In the case of `O=N[O-].[Na+]` [SODIUM NITRITE], the MIC against Staphylococcus aureus [1] was 1020 µg/mL; against Staphylococcus aureus [5], 4100 µg/mL; against Pseudomonas aeruginosa [6], 512 µg/mL; against Pseudomonas aeruginosa [7], 2050 µg/mL; with Pseudomonas aeruginosa [10] it was 128 µg/mL; against Burkholderia cepacia [12] it was 512 µg/mL. Further, the MIC in the assay with Pseudomonas aeruginosa [15] stood at 1020 µg/mL. Besides, the inhibition result in the assay with Staphylococcus aureus [2], in the assay with Burkholderia cepacia [3], with Pseudomonas aeruginosa [4], in the assay with Pseudomonas aeruginosa [8], in the assay with Staphylococcus aureus [9] and with Pseudomonas aeruginosa [11] was “Active” in each case. Also, the inhibition result in the assay on Staphylococcus aureus [13] and with Pseudomonas aeruginosa [14] was “Active” throughout.
